Converted amounts (≈) assume the structure as drawn.
Experiments:
Assay type in all cases: cell-based
[1] = system: SW620 cells; experiment: Cell proliferation assay (SRB), SW620; conditions: EGFR −, Her-2 −, 2 days, SRB; for IC50: Homo sapiens, SW-620, 48 h, read-out: CELL IC50 SW620
[2] = system: SK-Br-3 cells; experiment: Cell proliferation assay (SRB), SK-Br-3; conditions: EGFR −, Her-2 +++, 2 days, SRB; for IC50: Homo sapiens, SK-BR-3, 48 h, read-out: CELL IC50 SKBr3
[3] = system: A431 cells; experiment: Cell proliferation assay (SRB), A431; conditions: EGFR +++, Her-2 +, 2 days, SRB; for IC50: Homo sapiens, A-431, 48 h, read-out: CELL IC50 A431
[4] = molecular target: mouse fibroblast cell line transfected with the HER-2 oncogene (3T3/neu) (UniProt P04626, cells depend on it, species not given); experiment: Cell proliferation assay (SRB), 3T3/neu; conditions: EGFR −, Her-2 +++, 2 days, SRB; for GI50: read-out: CELL IC50 3T3/NEU (converted)
[5] = system: MDA-MB-435 cells; experiment: Cell proliferation assay (SRB), MDA-MB-435; conditions: EGFR −, Her-2 −, 2 days, SRB; for IC50: Homo sapiens, MDA-MB-435, 48 h, read-out: CELL IC50 MDA-MB-435

Row | Compound | IC50 [1] | IC50 [2] | IC50 [3] | GI50 [4] | IC50 [5] | CELL IC50 SW620 [1] | CELL IC50 SKBr3 [2] | CELL IC50 A431 [3] | CELL IC50 3T3/NEU [4] | CELL IC50 MDA-MB-435 [5]
1 | COCCN(C)C/C=C/C(=O)Nc1cc2c(Nc3ccc(Sc4nccs4)c(Cl)c3)c(C#N)cnc2cc1OC [Example 71, (E)-N-{4-[3-chloro-4-(1,3-thiazol-2-ylsulfanyl)anilino]-3-cyano-7-methoxy-6-quinolinyl}-4-[(2-methoxyethyl)(methyl)amino]-2-butenamide] | 0.4 µg/mL (≈ 0.672 µM) | 0.002 µg/mL (≈ 0.00336 µM) | 0.03 µg/mL (≈ 0.0504 µM) | 3.36 nM | 0.09 µg/mL (≈ 0.151 µM) | – | – | – | – | –
2 | COc1cc2ncc(C#N)c(Nc3ccc(Sc4nccs4)c(Cl)c3)c2cc1N [Example 39, 6-amino-4-{[3-chloro-4-(1,3-thiazol-2-ylsulfanyl)phenyl]amino}-7-methoxy-3-quinolinecarbonitrile] | 0.55 µg/mL (≈ 1.25 µM) | 0.236 µg/mL (≈ 0.536 µM) | 0.663 µg/mL (≈ 1.51 µM) | 757 nM | 0.65 µg/mL (≈ 1.48 µM) | – | – | – | – | –
3 | COc1cc2ncc(C#N)c(Nc3ccc(Sc4nccs4)c(Cl)c3)c2cc1[N+](=O)[O-] [Example 38, 4-{[3-chloro-4-(1,3-thiazol-2-ylsulfanyl)phenyl]amino}-7-methoxy-6-nitro-3-quinolinecarbonitrile] | 0.15 µg/mL (≈ 0.319 µM) | 0.124 µg/mL (≈ 0.264 µM) | 0.148 µg/mL (≈ 0.315 µM) | 558 nM | 0.35 µg/mL (≈ 0.745 µM) | – | – | – | – | –
4 | COc1cc2ncc(C#N)c(Nc3ccc(N(Cc4cccnc4)C(C)=O)c(Cl)c3)c2cc1[N+](=O)[O-] [Example 48] | – | – | – | – | – | 2.57 µg/mL | 0.68 µg/mL | 1.6 µg/mL | 1.79 µg/mL | 2.61 µg/mL
5 | CCOc1cc2ncc(C#N)c(Nc3ccc(Nc4nnc(C(F)(F)F)s4)c(Cl)c3)c2cc1[N+](=O)[O-] [Example 52, 4-(3-chloro-4-{[5-(trifluoromethyl)-1,3,4-thiadiazol-2-yl]amino}anilino)-7-ethoxy-6-nitro-3-quinolinecarbonitrile] | 2.54 µg/mL (≈ 4.74 µM) | 1.22 µg/mL (≈ 2.28 µM) | 1.79 µg/mL (≈ 3.34 µM) | 3530 nM | 1.84 µg/mL (≈ 3.43 µM) | – | – | – | – | –
6 | CCOc1cc2ncc(C#N)c(Nc3ccc(Oc4ccncc4)c(Cl)c3)c2cc1N [Example 55, 6-amino-4-[3-chloro-4-(4-pyridinyloxy)anilino]-7-ethoxy-3-quinolinecarbonitrile] | > 5 µg/mL | > 5 µg/mL | > 5 µg/mL | > 11600 nM | 1.61 µg/mL (≈ 3.73 µM) | – | – | – | – | –
7 | COc1cc2ncc(C#N)c(Nc3ccc(Sc4ncc(-c5ccccc5)s4)c(Cl)c3)c2cc1NC(=O)/C=C/CN(C)C [Example 70, (E)-N-(4-{3-chloro-4-[(5-phenyl-1,3-thiazol-2-yl)sulfanyl]anilino}-3-cyano-7-methoxy-6-quinolinyl)-4-(dimethylamino)-2-butenamide] | 0.5 µg/mL (≈ 0.797 µM) | 0.01 µg/mL (≈ 0.0159 µM) | 0.22 µg/mL (≈ 0.351 µM) | 191 nM | 0.08 µg/mL (≈ 0.128 µM) | – | – | – | – | –
8 | CCOc1cc2ncc(C#N)c(Nc3ccc4cc[nH]c4c3)c2cc1OCC [Example 22, 6,7-Diethoxy-4-(1H-indol-6-ylamino)-quinoline-3-carbonitrile] | 0.286 µg/mL (≈ 0.768 µM) | 0.0374 µg/mL (≈ 0.1 µM) | 0.123 µg/mL (≈ 0.33 µM) | 2510 nM | 0.365 µg/mL (≈ 0.98 µM) | – | – | – | – | –
9 | CCOc1cc2ncc(C#N)c(Nc3ccc(Sc4nc(C)cc(C)n4)c(Cl)c3)c2cc1NC(=O)/C=C/CN(C)C [Example 66, (E)-N-(4-{3-chloro-4-[(4,6-dimethyl-2-pyrimidinyl)sulfanyl]anilino}-3-cyano-7-ethoxy-6-quinolinyl)-4-(dimethylamino)-2-butenamide] | 0.32 µg/mL (≈ 0.544 µM) | 0.006 µg/mL (≈ 0.0102 µM) | 0.24 µg/mL (≈ 0.408 µM) | 17 nM | 0.2 µg/mL (≈ 0.34 µM) | – | – | – | – | –
10 | CCOc1cc2ncc(C#N)c(Nc3ccc4c(c3)S(=O)(=O)C=C4)c2cc1OCC [Example 30, 4-(1,1-Dioxo-1H-1-benzo[b]thiophen-6-ylamino)-6,7-diethoxy-q uinoline-3-carbonitrile] | – | – | – | – | – | 0.146 µg/mL | 0.336 µg/mL | 0.257 µg/mL | 0.251 µg/mL | 0.00328 µg/mL
11 | CCOc1cc2ncc(C#N)c(Nc3ccc(Oc4ccncc4)c(Cl)c3)c2cc1[N+](=O)[O-] [Example 54, 4-[3-chloro-4-(4-pyridinyloxy)anilino]-7-ethoxy-6-nitro-3-quinolinecarbonitrile] | > 5 µg/mL | > 5 µg/mL | > 5 µg/mL | > 10800 nM | 2.54 µg/mL (≈ 5.5 µM) | – | – | – | – | –
12 | COc1cc2ncc(C#N)c(Nc3ccc(-n4ccnc4)c(Cl)c3)c2cc1[N+](=O)[O-] [Example 41] | – | – | – | – | – | 1.66 µg/mL | 1.48 µg/mL | 1.79 µg/mL | 1.09 µg/mL | 0.95 µg/mL
13 | CCOc1cc2ncc(C#N)c(Nc3ccc(Cn4ccnc4)c(Cl)c3)c2cc1N [Example 61, 6-amino-4-[3-chloro-4-(1H-imidazol-1-ylmethyl)anilino]-7-ethoxy-3-quinolinecarbonitrile] | > 5 µg/mL | 0.75 µg/mL (≈ 1.79 µM) | > 5 µg/mL | > 11900 nM | > 5 µg/mL | – | – | – | – | –
